From patent US20240051946A1, “TARGETED PROTEIN DEGRADATION OF PARP14 FOR USE IN THERAPY” (Ribon Therapeutics, Inc., priority 2022, published 2024)

Molecular target: T1, catalytic domain of human PARP14 (residues 1611 to 1801) with NanoLuc tag (Homo sapiens, UniProt Q460N5)
T1 construct: expressed in transfected cells; host or cells: HEK-293T cells (ATCC), plasmid pRTX240 in pcDNA3.1(-)
T1 sequence (Q460N5 1611-1801): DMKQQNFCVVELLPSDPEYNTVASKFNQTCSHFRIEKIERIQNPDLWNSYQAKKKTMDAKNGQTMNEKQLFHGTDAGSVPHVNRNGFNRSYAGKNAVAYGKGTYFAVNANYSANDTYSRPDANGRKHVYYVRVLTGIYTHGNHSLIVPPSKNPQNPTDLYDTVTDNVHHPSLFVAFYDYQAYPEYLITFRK
Assay: NanoLuc assay for the degradation of PARP14
Type: cell-based
Settings: Assay A; NanoLuc-PARP14 overexpressed in HEK-293T cells; 2 hours at 37 degrees; luminescence
Description: The catalytic domain of human PARP14 (residues 1611 to 1801, GenBank Accession No. NM_017554) was inserted into the pcDNA3.1(−) vector. The insert also contained a NanoLuc tag on the N terminus of the PARP14 protein.
Degradation of PARP14 protein was assessed using measurement of the NanoLuc tag as proxy for the PARP14 protein. PARP14 with NanoLuc tag was overexpressed in […] cells (ATCC) using the plasmid described in Table 1. Plasmid DNA was diluted in empty vector DNA then added to 1.163 mL of phenol red free OptiMEM (Thermo Fisher). Plasmid DNA concentrations used in each assay described in Table 1. The plasmid DNA was mixed with 78.5 μL of Fugene HD (Promega) and allowed to incubate 5 minutes.
Next, 1.125 mL were added to 10 million 293T cells in DMEM (Thermo Fisher) supplemented with 10% FBS (VWR) and 1× Glutamax (Gibco). The transfection was incubated for 24 hrs at 37 degrees in an incubator supplemented with 5% CO2. The cells were then trypsinized and brought up in phenol red free OptiMEM media. Transfected HEK-293T cells were diluted to […] and then added to assay plate (Corning 3574) using a Multidrop (Thermo Fisher) to add 40 μL per well of the 384 well plate, resulting in 5,000 cells per well. 40 nL of a dose response curve diluted in DMSO of each test compound was added to the cell plate using a Mosquito (TTP Labtech) and the plate was incubated at 37 degrees for 2 hours. Assay plate was brought to room temperature then 20 μL per well of NanoGlo (Promega) was added to the plate. Luminescence was measured on an Envision (Perkin Elmer).
The average DMSO was calculated from 32 wells containing 0.1% DMSO only in columns 12 and 24 of the assay plate. The % of DMSO values were calculated as described below: […]
The % of DMSO values were plotted as a function of compound concentration and the following 4-parameter fit was applied to derive the DC50 values:
where top, bottom, and Hill Coefficient are allowed to float. Y is the % of DMSO and X is the compound concentration.
DC50 data for the Example compounds is provided below in Table 2 (“+” is <0.1 μM; “++” is ≥0.1 μM and <1 μM; and “+++” is ≥1 μM).

Row | SMILES | DC50 [nM]
1 | O=C1CCC(N2C(=O)c3ccc(N4CCN(CC5CCN(C(=O)CN6CCC(SCc7nc8cc(NC9CCCC9)cc(F)c8c(=O)[nH]7)CC6)CC5)CC4)cc3C2=O)C(=O)N1 (stereo not shown) [Example 29, 5-(4-((1-(2-(4-(((7-(cyclopentylamino)-5-fluoro-4-oxo-3,4-dihydroquinazolin-2-yl)methyl)thio)piperidin-1-yl)acetyl)piperidin-4-yl)methyl)piperazin-1-yl)-2-(2,6-dioxopiperidin-3-yl)isoindoline-1,3-dione] | < 100
2 | CC(=O)N1CCC(COc2cc(F)c3c(=O)[nH]c(CSC4CCN(CC(=O)N5CCC(CN6CCN(c7cccc8c7C(=O)N(C7CCC(=O)NC7=O)C8=O)CC6)CC5)CC4)nc3c2)CC1 (stereo not shown) [Example 19, 4-(4-((1-(2-(4-(((7-((1-acetylpiperidin-4-yl)methoxy)-5-fluoro-4-oxo-3,4-dihydroquinazolin-2-yl)methyl)thio)piperidin-1-yl)acetyl)piperidin-4-yl)methyl)piperazin-1-yl)-2-(2,6-dioxopiperidin-3-yl)isoindoline-1,3-dione] | < 100
3 | CC(=O)N1CCC(COc2cc(F)c3c(=O)[nH]c(CSC4CCN(C(=O)c5ccc(NC6CCC(=O)NC6=O)cc5)CC4)nc3c2)CC1 (stereo not shown) [Example 25, 3-((4-(4-(((7-((1-acetylpiperidin-4-yl)methoxy)-5-fluoro-4-oxo-3,4-dihydroquinazolin-2-yl)methyl)thio)piperidine-1-carbonyl)phenyl)amino)piperidine-2,6-dione] | < 100
4 | O=C1CCC(N2C(=O)c3ccc(N4CCC(CN5CCC(SCc6nc7cc(OCC8CC8)cc(F)c7c(=O)[nH]6)CC5)CC4)cc3C2=O)C(=O)N1 (stereo not shown) [Example 40, 5-(4-((4-(((7-(cyclopropylmethoxy)-5-fluoro-4-oxo-3,4-dihydroquinazolin-2-yl)methyl)thio)piperidin-1-yl)methyl)piperidin-1-yl)-2-(2,6-dioxopiperidin-3-yl)isoindoline-1,3-dione] | < 100
5 | O=C(CN1CCC(SCc2nc3cc(OCC4CCOCC4)cc(F)c3c(=O)[nH]2)CC1)NCCCCCCN1CCC(c2ccc(NC3CCC(=O)NC3=O)cc2)CC1 (stereo not shown) [Example 5, N-(6-(4-(4-((2,6-dioxopiperidin-3-yl)amino)phenyl)piperidin-1-yl)hexyl)-2-(4-(((5-fluoro-4-oxo-7-((tetrahydro-2H-pyran-4-yl)methoxy)-3,4-dihydroquinazolin-2-yl)methyl)thio)piperidin-1-yl)acetamide] | < 100
6 | O=C(CN1CCC(SCc2nc3cc(OCC4CCOCC4)cc(F)c3c(=O)[nH]2)CC1)NCCCCCCN1CCC(c2cccc(NC3CCC(=O)NC3=O)c2)CC1 (stereo not shown) [Example 16, N-(6-(4-(3-((2,6-dioxopiperidin-3-yl)amino)phenyl)piperidin-1-yl)hexyl)-2-(4-(((5-fluoro-4-oxo-7-((tetrahydro-2H-pyran-4-yl)methoxy)-3,4-dihydroquinazolin-2-yl)methyl)thio)piperidin-1-yl)acetamide] | < 100
7 | CC(=O)N1CCC(COc2cc(F)c3c(=O)[nH]c(CSC4CCN(C(=O)CNc5ccc6c(c5)C(=O)N(C5CCC(=O)NC5=O)C6=O)CC4)nc3c2)CC1 (stereo not shown) [Example 24, 5-((2-(4-(((7-((1-acetylpiperidin-4-yl)methoxy)-5-fluoro-4-oxo-3,4-dihydroquinazolin-2-yl)methyl)thio)piperidin-1-yl)-2-oxoethyl)amino)-2-(2,6-dioxopiperidin-3-yl)isoindoline-1,3-dione] | < 100
8 | CC(=O)N1CCC(COc2cc(F)c3c(=O)[nH]c(CSC4CCN(CC5CCN(c6cccc7c6C(=O)N(C6CCC(=O)NC6=O)C7=O)CC5)CC4)nc3c2)CC1 (stereo not shown) [Example 39, 4-(4-((4-(((7-((1-acetylpiperidin-4-yl)methoxy)-5-fluoro-4-oxo-3,4-dihydroquinazolin-2-yl)methyl)thio)piperidin-1-yl)methyl)piperidin-1-yl)-2-(2,6-dioxopiperidin-3-yl)isoindoline-1,3-dione] | < 100
9 | O=C1CCC(N2C(=O)c3cccc(N4CCN(CC5CCN(C(=O)CN6CCC(SCc7nc8cc(NC9CCCC9)cc(F)c8c(=O)[nH]7)CC6)CC5)CC4)c3C2=O)C(=O)N1 (stereo not shown) [Example 1, 4-(4-((1-(2-(4-(((7-(cyclopentylamino)-5-fluoro-4-oxo-3,4-dihydroquinazolin-2-yl)methyl)thio)piperidin-1-yl)acetyl)piperidin-4-yl)methyl)piperazin-1-yl)-2-(2,6-dioxopiperidin-3-yl)isoindoline-1,3-dione] | < 100
10 | CC(=O)N1CCC(COc2cc(F)c3c(=O)[nH]c(CSC4CCN(CC(=O)Nc5cccc6c5C(=O)N(C5CCC(=O)NC5=O)C6=O)CC4)nc3c2)CC1 (stereo not shown) [Example 31, 2-(4-(((7-((1-acetylpiperidin-4-yl)methoxy)-5-fluoro-4-oxo-3,4-dihydroquinazolin-2-yl)methyl)thio)piperidin-1-yl)-N-(2-(2,6-dioxopiperidin-3-yl)-1,3-dioxoisoindolin-4-yl)acetamide] | 100 to 1000
11 | O=C(CN1CCC(SCc2nc3cc(OCC4CCOCC4)cc(F)c3c(=O)[nH]2)CC1)NCCN1CCC(c2cccc(NC3CCC(=O)NC3=O)c2)CC1 (stereo not shown) [Example 15, N-(2-(4-(3-((2,6-dioxopiperidin-3-yl)amino)phenyl)piperidin-1-yl)ethyl)-2-(4-(((5-fluoro-4-oxo-7-((tetrahydro-2H-pyran-4-yl)methoxy)-3,4-dihydroquinazolin-2-yl)methyl)thio)piperidin-1-yl)acetamide] | < 100
12 | O=C1CCN(c2ccc(C3CCN(CC4CCN(C(=O)CN5CCC(SCc6nc7cc(OCC8CCOCC8)cc(F)c7c(=O)[nH]6)CC5)CC4)CC3)cc2)C(=O)N1 [Example 20, 1-(4-(1-((1-(2-(4-(((5-fluoro-4-oxo-7-((tetrahydro-2H-pyran-4-yl)methoxy)-3,4-dihydroquinazolin-2-yl)methyl)thio)piperidin-1-yl)acetyl)piperidin-4-yl)methyl)piperidin-4-yl)phenyl)dihydropyrimidine-2,4(1H,3H)-dione] | < 100
13 | O=C(CN1CCC(SCc2nc3cc(OCC4CCOCC4)cc(F)c3c(=O)[nH]2)CC1)NCC(=O)N1CCC(c2ccc(NC3CCC(=O)NC3=O)cc2)CC1 (stereo not shown) [Example 10, N-(2-(4-(4-((2,6-dioxopiperidin-3-yl)amino)phenyl)piperidin-1-yl)-2-oxoethyl)-2-(4-(((5-fluoro-4-oxo-7-((tetrahydro-2H-pyran-4-yl)methoxy)-3,4-dihydroquinazolin-2-yl)methyl)thio)piperidin-1-yl)acetamide] | < 100
14 | CC(=O)N1CCC(COc2cc(F)c3c(=O)[nH]c(CSC4CCN(CC#Cc5ccc6c(c5)n(C)c(=O)n6C5CCC(=O)NC5=O)CC4)nc3c2)CC1 (stereo not shown) [Example 36, 3-(5-(3-(4-(((7-((1-acetylpiperidin-4-yl)methoxy)-5-fluoro-4-oxo-3,4-dihydroquinazolin-2-yl)methyl)thio)piperidin-1-yl)prop-1-yn-1-yl)-3-methyl-2-oxo-2,3-dihydro-1H-benzo[d]imidazol-1-yl)piperidine-2,6-dione] | < 100
15 | O=C(CN1CCC(SCc2nc3cc(OCC4CCOCC4)cc(F)c3c(=O)[nH]2)CC1)NCCCCCC(=O)N1CCC(c2cccc(NC3CCC(=O)NC3=O)c2)CC1 (stereo not shown) [Example 12, N-(6-(4-(3-((2,6-dioxopiperidin-3-yl)amino)phenyl)piperidin-1-yl)-6-oxohexyl)-2-(4-(((5-fluoro-4-oxo-7-((tetrahydro-2H-pyran-4-yl)methoxy)-3,4-dihydroquinazolin-2-yl)methyl)thio)piperidin-1-yl)acetamide] | < 100
16 | CC(=O)N1CCC(COc2cc(F)c3c(=O)[nH]c(CSC4CCN(CC#Cc5ccc(N6CCC(=O)NC6=O)cc5)CC4)nc3c2)CC1 [Example 37, 1-(4-(3-(4-(((7-((1-acetylpiperidin-4-yl)methoxy)-5-fluoro-4-oxo-3,4-dihydroquinazolin-2-yl)methyl)thio)piperidin-1-yl)prop-1-yn-1-yl)phenyl)dihydropyrimidine-2,4(1H,3H)-dione] | < 100
